The results in this text go back to patent publication EP2050748A1, “Novel fused pyrimidines” (Bayer Schering Pharma Aktiengesellschaft, priority 2007, dated 2009).

SMILES strings stand for the structures.

Assay [1] has as its system phosphorylated GSK3 (Ser9). Description: Cellular pGSK3 assay (phospho-GSK3 ELISA). It counts as cell-based. The note with it: Homo sapiens, MCF7 cells, compound incubated 48h. The protocol:
In order to study the cellular activity of the compounds according to the present invention, an ELISA-based assay has been established for the phosphorylated protein glycogen synthetase kinase 3 (GSK3). The assay is based on a solid phase sandwich ELISA that detects endogenous levels of phosphorylated GSK3 using a phospho-GSK3 (Ser9) specific antibody (BioSource International, Inc.; Catalog #KHO0461). After incubation with cell lysates, the coated antibody captures the phosphorylated GSK3 protein. Following extensive washing, GSK3 polyclonal antibody is added to detect the captured phospho-GSK3 protein. Secondary antibody (anti-rabbit IgG-HRP) is then used to recognize the bound detection antibody. After the second incubation and washing to remove all the excess anti-rabbit IgG-HRP, a substrate solution is added, which is acted upon by the bound enzyme to produce color. The intensity of this colored product is directly proportional to the concentration of GSK-3β [pS9] present in the original specimen. MCF7 cells (ATCC HTB-22) were seeded into 96 well fate bottom plates at a density of 10000 cells/well. After 24 h 1 µl each of the compound dilutions (test compounds were dissolved as 10 mM solutions in dimethylsulfoxide (DMSO) and subsequently diluted) were added into each well of the 96 well plates and incubated for 48h at 37°C in a humidified athmosphere containing 5% CO2. Cells were harvested and lysed in cell extraction buffer (10 mM Tris, pH 7.4, 100 mM NaCl, 1 mM EDTA, 1 mM EGTA, 1 mM NaF, 20 mM Na4P2O7, 2 mM Na3VO4, 1% Triton X-100, 10vol% glycerol, 0.1vol% SDS, 0.5vol% deoxycholate, 1 mM phenylmethylsulfonylfluorid (PMSF)). The lysate were centrifuged for 10 min. at 4°C and the supernatant were transferred to a new tube. 50 µl of sample diluent (standard diluent buffer, Biosource) were added and 100 µl of cell lysate transferred into the tube and vortexed. 100 µl of each diluted cell lysate were added to the appropriate ELISA well plate and incubated for 3h at room temperature. The plates were washed 4 times with 1x wash buffer (Biosource). 50 µl of detection antibody (GSK3 (Ser9) detection antibody; BioSource) were added to each well and incubated for 30 min. at room temperature. The washing procedure was repeated between each step. 100µl of HRP-linked secondary antibody (anti-mouse IgG HRP-linked antibody) were added to each well and incubated for 30 min. at room temperature. 100µl of TMB substrate (0.05vol% 3,3',5,5' tetramethylbenzidine, 0.1vol% hydrogen peroxide, complex polypeptides in a buffered solution; Biosource) were added to each well and incubated for 30 min. at room temperature. Finally 100 µl of Stop solution (0.05vol% α and β unsaturated carbonyl compound) were added to each well and the plate were shaked gently for a few seconds. The absorbance was measured at λ = 450 nm (Wallac Victor2; Perkin Elmer, USA) within 30 min. after adding the stop solution. The analysis of the data was performed using a statistical program (Excel; Microsoft, USA) and the IC50 of pGSK3 inhibition was determined.
(An ELISA detects its analyte on a solid surface through an enzyme-linked reagent.)

In assay [2] the test system is phosphorylated Akt protein (Ser473). Put plainly: Cellular PI3K / Akt pathway assay (phospho-Akt ELISA). It counts as cell-based. As to conditions: Homo sapiens; MCF7 cells, stimulated with ß-Heregulin (20ng/ml), compound incubated 48h, phospho-Akt1 (Ser473) ELISA. The protocol: In order to study the cellular activity of the compounds according to the present invention, an Enzyme Linked Immunosorbent Assay (ELISA)-based assay has been used specific phospho-AKT. The assay is based on a Sandwich ELISA kit (PathScan™ Phospho-Akt1 (Ser473); Cell Signaling, USA; #7160).
The ELISA Kit detects endogenous levels of phosphorylated Akt protein. A phospho-Akt (Ser473) antibody (Cell Signaling, USA; #9271) has been coated onto the microwells. After incubation with cell lysates, the coated antibody captures the phosphorylated Akt protein. Following extensive washing, Akt1 monoclonal antibody (Cell Signaling, USA; #2967) is added to detect the captured phospho-Akt1 protein. HRP-linked anti-mouse antibody (HRP: horseradish peroxidase; Cell Signaling, USA; #7076) is then used to recognize the bound detection antibody. HRP substrate (= 3,3',5,5'-tetramethylbenzidine (TMB); Cell Signaling, USA; #7160) is added to develop colour. The magnitude of optical density for this developed color is proportional to the quantity of phosphorylated Akt protein.
MCF7 cells (ATCC HTB-22) are seeded into 96 well fate bottom plates at a density of 10000 cells/well. 24 hours after seeding, the cells are serum starved using low-serum medium (IMEM media including 0,1% charcoal treated FCS (FCS: fetal calf serum)). After 24 hours 1 µl each of the compound dilutions (test compounds were dissolved as 10 mM solutions in dimethylsulfoxide (DMSO) and subsequently diluted) are added into each well of the 96 well plates and incubated for 48h at 37°C in a humidified athmosphere containing 5% CO2. To stimulate Akt phosphorylation, ß-Heregulin (20ng/ml β-HRG) is added in parallel to the compounds. Wells containing unstimulated control cells (no β-Heregulin stimulation) are incubated with or without the diluted compound. Wells containing untreated control cells (no compound) are filled with medium containing 0.5% v:v DMSO and are or are not stimulated with β-Heregulin.
Cells are harvested and lysed with brief sonification in 1x x cell lysis buffer (20mM Tris (pH7.5), 150 mM NaCl, 1 mM ethylene diaminetetraacetate (EDTA), 1 mM ethylene glycolbis(2-aminoethyl)-N,N,N',N'-tetraacetic acid (EGTA), 1vol% Triton X-100, 2.5mM sodium pyrophosphate, 1 mM β-glycerolphosphate, 1 mM Na3VO4, 1 µg/ml leupeptin). The lysate is centrifuged for 10 min. at 4°C and the supernatant is transferred to a new tube. 100 µl of sample diluent (0.1vol% Tween-20, 0.1vol% sodium azide in phosphate buffered saline (PBS)) are added to a microcentrifuge tube and 100 µl of cell lysate are transferred into the tube and vortexed. 100 µl of each diluted cell lysate are added to the appropriate ELISA well, and incubated overnight at 4°C. The plates are washed 4 times with 1 x wash buffer (1 vol% tween-20, 0.33vol% thymol, in PBS). Next 100 µl of detection antibody (Akt1 (2H10) monoclonal detection antibody; Cell Signaling, USA; #2967) are added to each well and incubation continued for 1 h at 37°C. The washing procedure is repeated between each step. 100µl of secondary antibody (anti-mouse IgG HRP-linked antibody; Cell Signaling, USA; #7076) are added to each well and incubated for 30 min. at 37°C. Than, 100µl of TMB substrate (0.05% 3,3',5,5' tetramethylbenzidine, 0.1 % hydrogen peroxide, complex polypeptides in a buffered solution; Cell Signaling, USA; #7160) are added to each well and incubated for 30 min. at 25°C. Finally 100 µl of STOP solution (0.05vol% α and β unsaturated carbonyl compound) are added to each well and the plate are shaked gently. The absorbance is measured at λ=450 nm (Wallac Victor2; Perkin Elmer, USA) within 30 min. after adding the STOP solution. The analysis of the data is performed using a statistical program (Excel; Microsoft, USA). Preferred compounds show an inhibitory activity towards Akt phosphorylation below 10µM.

For orientation: IC50 means the concentration that gives 50% inhibition. Low readings indicate inhibition by little substance, high ones a need for much substance. Turning to `c1ccc(-c2cn3ccnc3nc2-c2ccc(CN3CCC(c4n[nH]c(-c5cnccn5)n4)CC3)cc2)cc1` [Example 21, 6-phenyl-7-(4-{[4-(5-pyrazin-2-yl-1,2,4-triazol-3-yl)piperidin-1-yl]methyl}phenyl)imidazo[1,2-a]pyrimidine], the values for the IC50 in assay [1] and in assay [2] were 1000 to 10000 nM and < 1000 nM, respectively.

Consider `c1ccc(-c2cn3ccnc3nc2-c2ccc(CN3CCC(c4n[nH]c(-c5ncccn5)n4)CC3)cc2)cc1` [Example 18, 6-phenyl-7-(4-{[4-(5-pyrimidin-2-yl-1,2,4-triazol-3-yl)piperidin-1-yl]methyl}phenyl)imidazo[1,2-a]pyrimidine], for which the IC50 in assay [1] and in assay [2] was 1000 to 10000 nM in each case.

In the case of `c1ccc(-c2cn3ccnc3nc2-c2ccc(CN3CCC(c4cc(-c5ccccn5)n[nH]4)CC3)cc2)cc1` [Example 5, 6-phenyl-7-(4-{[4-(3-pyridin-2-yl-pyrazol-5-yl)piperidin-1-yl]methyl}phenyl)imidazo[1,2-a]pyrimidine], the IC50 in assay [1] was 1000 to 10000 nM; in assay [2], < 1000 nM.

As to `CCc1cn2cc(-c3ccccc3)c(-c3ccc(CN4CCC(c5n[nH]c(-c6ccccn6)n5)CC4)cc3)nc2n1` [Example 17, 2-ethyl-6-phenyl-7-(4-{[4-(5-pyridin-2-yl-1,2,4-triazol-3-yl)piperidin-1-yl]methyl}phenyl)imidazo[1,2-a]pyrimidine], the IC50 in assay [1] was 1000 to 10000 nM; in assay [2] it was < 1000 nM.

Regarding `C#Cc1cnc2nc(-c3ccc(CN4CCC(c5n[nH]c(-c6ccccn6)n5)CC4)cc3)c(-c3ccccc3)cn12` [Example 13, 3-ethynyl-6-phenyl-7-(4-{[4-(5-pyridin-2-yl-1,2,4-triazol-3-yl)piperidin-1-yl]methyl}phenyl)imidazo[1,2-a]pyrimidine], the IC50 is 1000 to 10000 nM in assay [1] and < 1000 nM in assay [2].

`c1ccc(-c2cn3ccnc3nc2-c2ccc(CN3CCC(n4cnc(-c5ccccn5)c4)CC3)cc2)cc1` [Example 20, 6-phenyl-7-(4-{[4-(4-pyridin-2-yl-imidazol-1-yl)piperidin-1-yl]methyl}phenyl)imidazo[1,2-a]pyrimidine]: the IC50 in assay [1] was 1000 to 10000 nM; in assay [2] it was < 1000 nM.

Take `CCc1cnc2nc(-c3ccc(CN4CCC(c5n[nH]c(-c6ccccn6)n5)CC4)cc3)c(-c3ccccc3)cn12` [Example 22, 3-ethyl-6-phenyl-7-(4-{[4-(5-pyridin-2-yl-1,2,4-triazol-3-yl)piperidin-1-yl]methyl}phenyl)imidazo[1,2-a]pyrimidine]: the results for the IC50 in assay [1] and in assay [2] were 1000 to 10000 nM and < 1000 nM, respectively.

With `c1ccc(-c2cn3nc(C4CC4)nc3nc2-c2ccc(CN3CCC(c4n[nH]c(-c5ccccn5)n4)CC3)cc2)cc1` [Example 4, 2-cyclopropyl-6-phenyl-5-(4-{[4-(5-pyridin-2-yl-1,2,4-triazol-3-yl)piperidin-1-yl]methyl}phenyl)[1,2,4]triazolo[1,5-a]pyrimidine], the IC50 in assay [1] was 1000 to 10000 nM; in assay [2] it was < 1000 nM.

Consider `CNc1c(-c2ccccc2)c(-c2ccc(CN3CCC(c4n[nH]c(-c5ccccn5)n4)CC3)cc2)nc2nccn12` [Example 10, N-methyl-6-phenyl-7-(4-{[4-(5-pyridin-2-yl-1,2,4-triazol-3-yl)piperidin-1-yl]methyl}phenyl)imidazo[1,2-a]pyrimidin-5-amine], for which the IC50 in assay [1] is < 1000 nM; in assay [2], 1000 to 10000 nM.

Take `c1ccc(-c2cn3nc(C4CCC4)nc3nc2-c2ccc(CN3CCC(c4n[nH]c(-c5ccccn5)n4)CC3)cc2)cc1` [Example 7, 2-cyclobutyl-6-phenyl-5-(4-{[4-(5-pyridin-2-yl-1,2,4-triazol-3-yl)piperidin-1-yl]methyl}phenyl)[1,2,4]triazolo[1,5-a]pyrimidine]: the IC50 in assay [1] and in assay [2] was < 1000 nM throughout.

`N#Cc1cnc2nc(-c3ccc(CN4CCC(c5n[nH]c(-c6ccccn6)n5)CC4)cc3)c(-c3ccccc3)cn12` [Example 8, 6-phenyl-7-(4-{[4-(5-pyridin-2-yl-1,2,4-triazol-3-yl)piperidin-1-yl]methyl}phenyl)imidazo[1,2-a]pyrimidine-3-carbonitrile]: the 50% inhibitory concentration (IC50) in assay [1] is 1000 to 10000 nM; in assay [2] it was < 1000 nM.

In the case of `c1ccc(-c2cn3ccnc3nc2-c2ccc(CN3CCC(c4n[nH]c(-c5ccncc5)n4)CC3)cc2)cc1` [Example 6, 6-phenyl-7-(4-{[4-(5-pyridin-4-yl-1,2,4-triazol-3-yl)piperidin-1-yl]methyl}phenyl)imidazo[1,2-a]pyrimidine], the IC50 was 1000 to 10000 nM in assay [1] and < 1000 nM in assay [2].

Turning to `Cc1cnc2nc(-c3ccc(CN4CCC(c5n[nH]c(-c6ccccn6)n5)CC4)cc3)c(-c3ccccc3)cn12` [Example 14, 3-methyl-6-phenyl-7-(4-{[4-(5-pyridin-2-yl-1,2,4-triazol-3-yl)piperidin-1-yl]methyl}phenyl)imidazo[1,2-a]pyrimidine], the results for the IC50 in assay [1] and in assay [2] were 1000 to 10000 nM and < 1000 nM, respectively.

As for `c1ccc(-c2cn3nccc3nc2-c2ccc(CN3CCC(c4n[nH]c(-c5ccccn5)n4)CC3)cc2)cc1` [Example 19, 6-phenyl-5-(4-{[4-(5-pyridin-2-yl-1,2,4-triazol-3-yl)piperidin-1-yl]methyl}phenyl)pyrazolo[1,5-a]pyrimidine], the IC50 in assay [1] was 1000 to 10000 nM; in assay [2], < 1000 nM.
